Laboratory results as given in ChEMBL document CHEMBL1135071, “Di- and trisubstituted pyrazolo[1,5-a]pyridine derivatives: synthesis, dopamine receptor binding and ligand efficacy” (Bioorg Med Chem Lett, 2002).

How the values were obtained:
[1] = target: D(3) dopamine receptor (Homo sapiens, UniProt P35462); assay: In vitro binding affinity at human cloned dopamine receptor D3 stably expressed in CHO cells by [3H]spiperone displacement.; assay type: cell-based
[2] = target: T1, D(2) dopamine receptor (Homo sapiens, UniProt P14416); assay: In vitro binding affinity at human cloned dopamine receptor D2 (short) stably expressed in CHO cells by [3H]spiperone displacement.; assay type: cell-based
[3] = target: T2, D(4) dopamine receptor (Homo sapiens, UniProt P21917); assay: In vitro binding affinity at human cloned dopamine receptor D4 stably expressed in CHO cells by [3H]spiperone displacement.; assay type: cell-based
T2 sequence (P21917 whole entry): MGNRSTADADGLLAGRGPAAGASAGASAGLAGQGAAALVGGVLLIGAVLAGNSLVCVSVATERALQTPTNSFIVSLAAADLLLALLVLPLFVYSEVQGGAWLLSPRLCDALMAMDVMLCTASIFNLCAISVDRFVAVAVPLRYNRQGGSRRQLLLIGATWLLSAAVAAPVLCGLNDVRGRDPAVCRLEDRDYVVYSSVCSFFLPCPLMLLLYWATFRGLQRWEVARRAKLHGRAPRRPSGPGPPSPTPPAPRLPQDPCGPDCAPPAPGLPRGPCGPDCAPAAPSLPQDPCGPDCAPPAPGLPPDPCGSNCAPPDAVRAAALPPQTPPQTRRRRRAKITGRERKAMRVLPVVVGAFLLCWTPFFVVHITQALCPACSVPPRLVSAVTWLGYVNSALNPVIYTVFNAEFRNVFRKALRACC

[4] = target: T1, D(2) dopamine receptor; assay: In vitro binding affinity at human cloned dopamine receptor D2 (long) stably expressed in CHO cells by [3H]-Spiperone displacement.; assay type: cell-based
[5] = target: T1, D(2) dopamine receptor; assay: Binding affinity of compound was tested in vitro for its ability to compete with [3H]spiperone radioligand at cloned human Dopamine receptor D2L stably expressed in CHO cells; assay type: cell-based
[6] = target: T2, D(4) dopamine receptor; assay: Tested for the effective concentration against human D4.2 receptor in CHO 10001 cells established in mitogenesis assay; assay type: functional, cell-based
[7] = target: T3, D(4) dopamine receptor (Homo sapiens) (UniProt P21917); assay: Intrinsic activity as rate of incorporation of [3H]thymidine in human D4.2 receptor established in mitogenesis assay relative to quinpirole; assay type: functional
T3 sequence (whole entry): T2 sequence (P21917 whole entry)

[8] = Compound was tested in vitro for its ability to compete with [3H]-ketanserin at 5-hydroxytryptamine 2 receptor in porcine brain homogenate; assay type: tissue-based

D(3) dopamine receptor, sequence (P35462 whole entry): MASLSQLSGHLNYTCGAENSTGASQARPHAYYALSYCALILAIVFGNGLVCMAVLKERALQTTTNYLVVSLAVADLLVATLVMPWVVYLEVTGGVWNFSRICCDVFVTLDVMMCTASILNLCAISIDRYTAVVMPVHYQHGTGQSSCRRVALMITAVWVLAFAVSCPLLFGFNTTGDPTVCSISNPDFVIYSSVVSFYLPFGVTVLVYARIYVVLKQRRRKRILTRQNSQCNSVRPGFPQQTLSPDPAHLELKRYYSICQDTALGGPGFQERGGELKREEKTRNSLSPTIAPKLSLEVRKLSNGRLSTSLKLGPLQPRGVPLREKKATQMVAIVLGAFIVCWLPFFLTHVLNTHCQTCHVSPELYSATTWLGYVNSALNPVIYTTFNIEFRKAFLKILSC
T1 sequence (P14416 whole entry): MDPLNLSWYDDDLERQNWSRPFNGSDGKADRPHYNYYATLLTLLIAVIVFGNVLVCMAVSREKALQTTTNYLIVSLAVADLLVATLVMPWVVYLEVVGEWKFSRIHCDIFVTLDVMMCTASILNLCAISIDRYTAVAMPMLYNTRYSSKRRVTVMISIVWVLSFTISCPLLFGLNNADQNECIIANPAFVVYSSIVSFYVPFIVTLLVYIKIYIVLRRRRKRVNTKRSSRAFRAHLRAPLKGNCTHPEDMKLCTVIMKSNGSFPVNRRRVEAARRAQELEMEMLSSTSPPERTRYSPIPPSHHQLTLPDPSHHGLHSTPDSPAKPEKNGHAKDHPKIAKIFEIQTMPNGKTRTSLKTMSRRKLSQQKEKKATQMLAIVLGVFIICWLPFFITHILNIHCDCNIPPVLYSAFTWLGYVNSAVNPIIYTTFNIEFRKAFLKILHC

| Compound | Ki [1] [µM] | Ki [2] [µM] | Ki [3] [µM] | Ki [4] [µM] | Ki [5] [µM] | EC50 [6] [µM] | Intrinsic activity [7] [%] | Ki [8] [µM] |
| --- | --- | --- | --- | --- | --- | --- | --- | --- |
| Clc1ccc(N2CCN(Cc3cnn4c(N5CCN(Cc6ccccc6)CC5)cccc34)CC2)cc1 | 0.41 | 0.4 | 0.18 | 0.64 | – | – | – | – |
| Cc1nn2c(-c3ccc(F)cc3)cccc2c1CN1CCN(c2ccc(Cl)cc2)CC1 | 3.8 | 16 | 0.087 | 14 | – | – | – | – |
| OCc1cccn2ncc(CN3CCN(c4ccc(Cl)cc4)CC3)c12 | > 100 | 79 | 0.11 | 56 | – | – | – | – |
| Fc1ccc(-c2cccc3c(CN4CCN(c5ccc(Cl)cc5)CC4)cnn23)cc1 | 5.7 | 15 | 0.029 | 15 | – | – | – | – |
| C[Si](C)(C)c1cccc2c(CN3CCN(c4ccc(Cl)cc4)CC3)cnn12 | 2 | 2.8 | 0.0028 | 3.1 | – | – | – | – |
| OCc1ccc2c(CN3CCN(c4ccc(Cl)cc4)CC3)cnn2c1 | 2.6 | 22 | 0.02 | 28 | – | – | – | – |
| Cc1cccn2ncc(CN3CCN(c4ccc(Cl)cc4)CC3)c12 | 9.4 | 12 | – | 13 | – | – | – | – |
| Cc1nn2c(C#N)cccc2c1CN1CCN(c2ccc(Cl)cc2)CC1 | 21 | 58 | 0.0023 | – | 59 | 0.012 | 26 | 1 |
| Clc1ccc(N2CCN(Cc3cnn4c(-c5ccccc5)cccc34)CC2)cc1 | 0.84 | 2.8 | 0.0076 | 5.4 | – | – | – | – |
| C#Cc1cccc2c(CN3CCN(c4ccc(Cl)cc4)CC3)c(C)nn12 | 17 | 25 | 0.0015 | 21 | – | – | – | – |
| Cc1nn2c(N3CCN(Cc4ccccc4)CC3)cccc2c1CN1CCN(c2ccc(Cl)cc2)CC1 | 0.27 | 0.12 | 0.026 | 0.3 | – | – | – | – |
| Cc1nn2c(-c3ccccc3)cccc2c1CN1CCN(c2ccc(Cl)cc2)CC1 | 3.1 | 24 | 0.037 | 28 | – | – | – | – |
| O=Cc1cccc2c(CN3CCN(c4ccc(Cl)cc4)CC3)cnn12 | 5.9 | 9.2 | 0.0026 | 9.5 | – | – | – | – |
| N#Cc1cccc2c(CN3CCN(c4ccc(Cl)cc4)CC3)cnn12 | 26 | 45 | 0.0015 | – | 44 | 0.0015 | 31 | 0.18 |
| C#Cc1cccc2c(CN3CCN(c4ccc(Cl)cc4)CC3)cnn12 | 4.6 | 6.2 | – | 3.7 | – | – | – | – |
| Cc1cccc2c(CN3CCN(c4ccc(Cl)cc4)CC3)cnn12 | 3.8 | 5 | – | 4.9 | – | – | – | – |
